The target in this assay is Coagulation factor X (Homo sapiens, UniProt P00742). The assay is described as follows: Binding affinity at factor 10a.
Coagulation factor X, sequence (P00742 41-179 limits assumed): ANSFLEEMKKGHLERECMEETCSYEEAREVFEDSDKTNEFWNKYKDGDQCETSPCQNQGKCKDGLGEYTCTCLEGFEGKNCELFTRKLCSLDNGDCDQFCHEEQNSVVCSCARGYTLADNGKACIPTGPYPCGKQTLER
Coagulation factor X, sequence (P00742 235-488 limits assumed): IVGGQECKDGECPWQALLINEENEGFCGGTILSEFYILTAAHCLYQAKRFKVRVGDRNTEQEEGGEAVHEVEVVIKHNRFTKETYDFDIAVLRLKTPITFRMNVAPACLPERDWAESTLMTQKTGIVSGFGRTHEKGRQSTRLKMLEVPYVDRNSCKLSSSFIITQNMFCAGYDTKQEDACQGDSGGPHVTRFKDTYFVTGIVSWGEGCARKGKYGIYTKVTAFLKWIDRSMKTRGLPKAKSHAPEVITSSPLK

As usually defined, the Ki is the dissociation constant of the complex between target and ligand, obtained from inhibition or displacement. A higher Ki goes with weaker binding. `C[C@@H](C(=O)N1CCOCC1)N1CC[C@H](NS(=O)(=O)c2cc3cc(Cl)ccc3s2)C1=O` had a Ki of 47 nM. Under `C[C@@H](C(=O)N1CCOCC1)N1CC[C@H](NS(=O)(=O)c2cc3ccc(Cl)cc3s2)C1=O` stands 15 nM. Under `C[C@@H](C(=O)N1CCOCC1)N1CC[C@H](NS(=O)(=O)c2nc3cc(Cl)ccc3s2)C1=O` stands 112 nM.

For `C[C@@H](C(=O)N1CCOCC1)N1CC[C@H](NS(=O)(=O)c2cc3ccc(Cl)cc3o2)C1=O`, the inhibitory constant (Ki) is 285 nM. Under `C[C@@H](C(=O)N1CCOCC1)N1CC[C@H](NS(=O)(=O)c2cc3cc(Cl)ccc3o2)C1=O` stands 782 nM; under `C[C@@H](C(=O)N1CCOCC1)N1CC[C@H](NS(=O)(=O)c2nc3ccc(Cl)cc3s2)C1=O`, 4160 nM; under `C[C@@H](C(=O)N1CCOCC1)N1CC[C@H](NS(=O)(=O)c2cc3ccc(Cl)cc3[nH]2)C1=O`, 170 nM. Under `C[C@@H](C(=O)N1CCOCC1)N1CC[C@H](NS(=O)(=O)c2cc3cc(Cl)ccc3[nH]2)C1=O` stands 90 nM.

The record behind these values is ChEMBL document CHEMBL1139750, “Arylsulfonamides: a study of the relationship between activity and conformational preferences for a series of factor Xa inhibitors” (Bioorg Med Chem Lett, 2006).
